These are literature values, as cited in patent publication US6703036B1, “Stomach-action molluscicides” (priority 1997, dated 2004).

The term LD50 denotes the dose at which mortality reaches 50%.

Data set [1] deals with golden apple snail, Pomacea canaliculata. Conditions: used on its own at 100 ppm, aqueous solution on the water surface.
For the next data set, the system named is rat. Conditions: oral administration.

In the case of `CCCCCCCCCCCCOS(=O)(=O)[O-].[Na+]` [Sodium dodecyl sulphate], the molluscicidal activity result in data set [1] was “effective molluscicide”.

As for Sorbitan monolaurate, in the data set on rat, the LD50 was 33600 mg/kg.

Sorbitan monostearate: in the data set on rat, the LD50 is 31000 mg/kg.
